Read-outs that look alike come from different tables or passages of the source.
Experiments:
Type in all cases: in vivo, human
[1] = Phase 1 food-effect crossover study: plasma PK after single 300 mg oral dose; conditions: for AUC(0-inf) / AUC(0-t) / Cmax / Tmax: plasma, po, 300 mg
Method: These meals were to be consumed within 20 minutes. Dose administration for Treatments B, C, and D was based off of the end time of the meal. […] Geometric means were determined for AUC and Cmax. PK parameters were evaluated using non-compartmental analysis using Phoenix® WinNonlin® (Pharsight Corp, St. Louis, Mo.), Version 6.2.1. Confidence intervals (CI) for test treatments (fed states: Treatments B, C, and D) compared with the reference treatment (fasted state: Treatment A) were constructed for AUC0-24, AUC0-t, AUC0-inf, and Cmax.

[2] = Phase 1 food-effect study: safety and tolerability
Method: Safety and tolerability was assessed by: Adverse events (AEs); vital sign measurements at multiple time-points within 24 hours post-dose in each treatment period; and clinical laboratory tests 24 hours post-dose in each treatment period.

[3] = Phase 1 multiple oral dose study: urine pharmacokinetics; conditions: for CL renal: human
Method: Urine samples were only collected from a subset of subjects because analysis of urine PK was added by an amendment to the study protocol after the study was already underway. […] Additional parameters […] Ae0-24 were also calculated.

[4] = test system: ABSSSI known or suspected to be due to Gram-positive pathogens; test: Phase 3 oral omadacycline vs oral linezolid in ABSSSI: Investigator's Assessment of Clinical Response at PTE; conditions: CE-PTE
[5] = single 300 mg oral dose, healthy subjects

Structure (SMILES): CN(C)c1cc(CNCC(C)(C)C)c(O)c2c1C[C@H]1C[C@H]3[C@H](N(C)C)C(O)=C(C(N)=O)C(=O)[C@@]3(O)C(O)=C1C2=O [Omadacycline, 9-[(2,2-dimethyl-propylamino)-methyl]-minocycline]
- AUC0-24, Mean (Coefficient of Variation) ([1]; Treatment A: fasted overnight): 7.2 (28.1) mcg * h/mL
- AUC0-t, Mean (Coefficient of Variation) ([1]; Treatment A: fasted overnight): 7.2 (28.1) mcg * h/mL
- half-life ([1]; human, in vivo, across all treatment periods, read-out: mean T1/2): 13.5 to 13.8 h
- AUC(0-inf) ([1]; human, Treatment A: fasted overnight (N = 30), read-out: AUC0-inf, Geometric LS Mean): 10600 ng·h/mL
- AUC(0-t) ([1]; human, Treatment A: fasted overnight, read-out: AUC0-24, Geometric LS Mean): 7400 ng·h/mL
- AUC(0-t) ([1]; human, Treatment A: fasted overnight, read-out: AUC0-24, Mean (Coefficient of Variation)): 7200 ng·h/mL
- AUC(0-inf) ([1]; human, Treatment A: fasted overnight, read-out: AUC0-inf, Mean (Coefficient of Variation)): 10200 ng·h/mL
- AUC(0-t) ([1]; human, Treatment A: fasted overnight, read-out: AUC0-t, Geometric LS Mean): 7400 ng·h/mL
- AUC(0-t) ([1]; human, Treatment A: fasted overnight, read-out: AUC0-t, Mean (Coefficient of Variation)): 7200 ng·h/mL
- Cmax ([1]; human, Treatment A: fasted overnight, read-out: Cmax, Geometric LS Mean): 660 ng/mL
- Cmax ([1]; human, Treatment A: fasted overnight, read-out: Cmax, Mean (Coefficient of Variation)): 600 ng/mL
- Tmax ([1]; human, Treatment A: fasted overnight, read-out: Tmax): 2.5 h
- AUC(0-t) ([1]; human, Treatment B: high-fat nondairy meal 4 h before dosing, read-out: AUC0-24, Geometric LS Mean): 6200 ng·h/mL
- AUC(0-t) ([1]; human, Treatment B: high-fat nondairy meal 4 h before dosing, read-out: AUC0-24, Mean (Coefficient of Variation)): 6100 ng·h/mL
- AUC(0-inf) ([1]; human, Treatment B: high-fat nondairy meal 4 h before dosing, read-out: AUC0-inf, Geometric LS Mean): 9000 ng·h/mL
- AUC(0-inf) ([1]; human, Treatment B: high-fat nondairy meal 4 h before dosing, read-out: AUC0-inf, Mean (Coefficient of Variation)): 8800 ng·h/mL
- AUC(0-t) ([1]; human, Treatment B: high-fat nondairy meal 4 h before dosing, read-out: AUC0-t, Geometric LS Mean): 6200 ng·h/mL
- AUC(0-t) ([1]; human, Treatment B: high-fat nondairy meal 4 h before dosing, read-out: AUC0-t, Mean (Coefficient of Variation)): 6100 ng·h/mL
- Cmax ([1]; human, Treatment B: high-fat nondairy meal 4 h before dosing, read-out: Cmax, Geometric LS Mean): 560 ng/mL
- Cmax ([1]; human, Treatment B: high-fat nondairy meal 4 h before dosing, read-out: Cmax, Mean (Coefficient of Variation)): 600 ng/mL
- Tmax ([1]; human, Treatment B: high-fat nondairy meal 4 h before dosing, read-out: Tmax): 2.9 h
- AUC(0-t) ([1]; human, Treatment C: high-fat nondairy meal 2 h before dosing, read-out: AUC0-24, Geometric LS Mean): 4300 ng·h/mL
- AUC(0-t) ([1]; human, Treatment C: high-fat nondairy meal 2 h before dosing, read-out: AUC0-24, Mean (Coefficient of Variation)): 4200 ng·h/mL
- AUC(0-inf) ([1]; human, Treatment C: high-fat nondairy meal 2 h before dosing, read-out: AUC0-inf, Geometric LS Mean): 6200 ng·h/mL
- AUC(0-inf) ([1]; human, Treatment C: high-fat nondairy meal 2 h before dosing, read-out: AUC0-inf, Mean (Coefficient of Variation)): 6000 ng·h/mL
- AUC(0-t) ([1]; human, Treatment C: high-fat nondairy meal 2 h before dosing, read-out: AUC0-t, Geometric LS Mean): 4300 ng·h/mL
- AUC(0-t) ([1]; human, Treatment C: high-fat nondairy meal 2 h before dosing, read-out: AUC0-t, Mean (Coefficient of Variation)): 4200 ng·h/mL
- Cmax ([1]; human, Treatment C: high-fat nondairy meal 2 h before dosing, read-out: Cmax, Geometric LS Mean): 390 ng/mL
- Cmax ([1]; human, Treatment C: high-fat nondairy meal 2 h before dosing, read-out: Cmax, Mean (Coefficient of Variation)): 400 ng/mL
- Tmax ([1]; human, Treatment C: high-fat nondairy meal 2 h before dosing, read-out: Tmax): 2.9 h
- AUC(0-t) ([1]; human, Treatment D: high-fat meal incl. dairy 2 h before dosing, read-out: AUC0-24, Geometric LS Mean): 2800 ng·h/mL
- AUC(0-t) ([1]; human, Treatment D: high-fat meal incl. dairy 2 h before dosing, read-out: AUC0-24, Mean (Coefficient of Variation)): 2800 ng·h/mL
- AUC(0-inf) ([1]; human, Treatment D: high-fat meal incl. dairy 2 h before dosing, read-out: AUC0-inf, Geometric LS Mean): 4000 ng·h/mL
- AUC(0-inf) ([1]; human, Treatment D: high-fat meal incl. dairy 2 h before dosing, read-out: AUC0-inf, Mean (Coefficient of Variation)): 4000 ng·h/mL
- AUC(0-t) ([1]; human, Treatment D: high-fat meal incl. dairy 2 h before dosing, read-out: AUC0-t, Geometric LS Mean): 2800 ng·h/mL
- AUC(0-t) ([1]; human, Treatment D: high-fat meal incl. dairy 2 h before dosing, read-out: AUC0-t, Mean (Coefficient of Variation)): 2800 ng·h/mL
- Cmax ([1]; human, Treatment D: high-fat meal incl. dairy 2 h before dosing, read-out: Cmax, Geometric LS Mean): 270 ng/mL
- Cmax ([1]; human, Treatment D: high-fat meal incl. dairy 2 h before dosing, read-out: Cmax, Mean (Coefficient of Variation)): 300 ng/mL
- Tmax ([1]; human, Treatment D: high-fat meal incl. dairy 2 h before dosing, read-out: Tmax): 2.9 h
- Tmax ([1]; human, across all treatment periods, read-out: median Tmax): 2.5 to 2.9 h
- serious AE (SAE) [2, 5]: no subject experienced a serious AE
- treatment-related adverse events, clinically relevant changes in laboratory values or vital signs [2, 5]: No treatment-related adverse events or clinically relevant changes in laboratory values, or vital signs occurred
- median change from baseline in heart rate ([2]; single 300 mg oral dose, all other treatment groups, all measured time points): ≤ 3 bpm
- tolerability ([2]; single oral dose (300 mg), healthy subjects): well tolerated
- Ae0-24, Mean (CV) ([3]; 300 mg, Day 1 (n = 2)): 20.37 (8.3) mg
- Fe0-24, Mean (CV) ([3]; 300 mg, Day 1 (n = 2)): 6.79 (8.3) %
- Ae0-24, Mean (CV) ([3]; 300 mg, Day 5 (n = 3)): 26.14 (14.6) mg
- Fe0-24, Mean (CV) ([3]; 300 mg, Day 5 (n = 3)): 8.71 (14.6) %
- Ae0-24, Mean (CV) ([3]; 450 mg, Day 1 (n = 3)): 25.06 (16.8) mg
- Fe0-24, Mean (CV) ([3]; 450 mg, Day 1 (n = 3)): 5.57 (16.8) %
- Ae0-24, Mean (CV) ([3]; 450 mg, Day 5 (n = 5)): 30.81 (33.0) mg
- Fe0-24, Mean (CV) ([3]; 450 mg, Day 5 (n = 5)): 6.85 (33.0) %
- Ae0-24, Mean (CV) ([3]; 600 mg, Day 1 (n = 1)): 31.96 mg
- Fe0-24, Mean (CV) ([3]; 600 mg, Day 1 (n = 1)): 5.33%
- Ae0-24, Mean (CV) ([3]; 600 mg, Day 5 (n = 4)): 51.82 (14.8) mg
- Fe0-24, Mean (CV) ([3]; 600 mg, Day 5 (n = 4)): 8.64 (14.8) %
- CL renal ([3]; in vivo, 300 mg, Day 1 (n = 2), read-out: CLr, Mean (CV) (converted)): 50.2 mL/min
- CL renal ([3]; in vivo, 300 mg, Day 5 (n = 3), read-out: CLr, Mean (CV) (converted)): 54.7 mL/min
- CL renal ([3]; in vivo, 450 mg, Day 1 (n = 3), read-out: CLr, Mean (CV) (converted)): 46.7 mL/min
- CL renal ([3]; in vivo, 450 mg, Day 5 (n = 5), read-out: CLr, Mean (CV) (converted)): 39.7 mL/min
- CL renal ([3]; in vivo, 600 mg, Day 1 (n = 1), read-out: CLr, Mean (CV) (converted)): 69.5 mL/min
- CL renal ([3]; in vivo, 600 mg, Day 5 (n = 4), read-out: CLr, Mean (CV) (converted)): 50.8 mL/min
- CL renal ([3]; urine, oral, all omadacycline dose groups, Day 1, read-out: Renal clearance (CLr)): 46.7 to 70 mL/min
- CL renal ([3]; urine, oral, all omadacycline dose groups, Day 5, read-out: Renal clearance (CLr)): 40 to 55 mL/min
- Difference in Overall Clinical Success rate at PTE, omadacycline minus linezolid [4]: 2.3%

— patent US10111890B2, “9-aminomethyl minocycline compounds and uses thereof” (Paratek Pharmaceuticals, Inc., priority 2016, dated 2018)
